Measurements: article PMC9764288, “Computation-Aided Engineering of Cytochrome P450 for the Production of Pravastatin” (ACS Catalysis, 2022)

Assays:
[1] = target: T1, CYP105AS1 (Amycolatopsis orientalis, UniProt W5VH56); assay: UV-vis spectral (type I Soret shift) titration of 3-8 uM purified P450 with compactin from DMSO stocks at 25 °C in 50 mM potassium phosphate, 300 mM KCl, 10% glycerol, pH 8.0; hyperbolic or Morrison tight-binding fit.
T1 construct: N-terminal polyhistidine tag, pBAD vector, expressed in E. coli Top10
T1 sequence (W5VH56 1-401): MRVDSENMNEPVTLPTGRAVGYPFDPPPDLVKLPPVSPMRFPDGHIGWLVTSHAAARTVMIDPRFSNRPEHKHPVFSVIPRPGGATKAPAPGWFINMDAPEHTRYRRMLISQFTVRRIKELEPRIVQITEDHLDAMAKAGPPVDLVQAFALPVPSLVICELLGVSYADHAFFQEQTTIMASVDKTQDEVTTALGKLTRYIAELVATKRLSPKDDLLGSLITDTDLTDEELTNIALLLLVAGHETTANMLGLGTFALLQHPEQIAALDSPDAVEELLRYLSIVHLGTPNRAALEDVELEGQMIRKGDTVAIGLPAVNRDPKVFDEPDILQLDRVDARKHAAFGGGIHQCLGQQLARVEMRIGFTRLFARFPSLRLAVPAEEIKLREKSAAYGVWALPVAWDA
Experimental: (§1) Absorbance spectra (300–800 nm) of P450 variants were measured on a Cary 60 UV–vis spectrophotometer at 25 °C using 3–8 μM protein in buffer A. The pyridine hemochromogen method was used to quantify CYP105AS1 P450 variant heme concentrations and to determine an extinction coefficient at the heme Soret maximum for each variant.[89] For titration, compactin (0.05–0.5 μL) was added from 5 to 50 mM stock solutions in DMSO. The overall absorbance change (ΔAmax) was calculated as Apeak (absorbance maximum) minus Atrough (absorbance minimum) and plotted against the substrate concentration. Data were fitted according to a standard hyperbolic binding equation or a Morrison equation for tight-binding to determine dissociation constants (Kd).[90],[91]
(§2) UV–vis substrate binding studies were conducted to investigate the effect of mutations on compactin binding. […] Probably, the bulky aromatic side chain of the introduced Phe95 residue influenced the binding of compactin, which allowed elimination of the proximal water ligand and full conversion to the high-spin state upon binding of this substrate.

[2] = target: T2, P450pra + F76N (Amycolatopsis orientalis, UniProt W5VH56, F76N/I95T/Q127R/A180V/L236I/A265N); assay type: binding
T2 construct: N-terminal polyhistidine tag, expressed in E. coli
Experimental: as §1, §2

[3] = target: T3, P450pra + T95F (Amycolatopsis orientalis, UniProt W5VH56, I95F/Q127R/A180V/L236I/A265N); assay type: binding
T3 construct: N-terminal polyhistidine tag, expressed in E. coli
Experimental: as §1, §2

[4] = target: T4, P450pra + T286I (Amycolatopsis orientalis, UniProt W5VH56, I95T/Q127R/A180V/L236I/A265N/T286I); assay type: binding
T4 construct: N-terminal polyhistidine tag, expressed in E. coli
Experimental: as §1, §2

[5] = target: T5, P450pra + T95F/V180M (=P450pra100) (Amycolatopsis orientalis, UniProt W5VH56, I95F/Q127R/A180M/L236I/A265N); assay type: binding
T5 construct: N-terminal polyhistidine tag, expressed in E. coli
Experimental: as §1, §2

[6] = target: T6, P450pra + P80G (Amycolatopsis orientalis, UniProt W5VH56, P80G/I95T/Q127R/A180V/L236I/A265N); assay type: binding
T6 construct: N-terminal polyhistidine tag, expressed in E. coli
Experimental: as §1, §2

[7] = target: T7, P450pra +V180M (Amycolatopsis orientalis, UniProt W5VH56, I95T/Q127R/A180M/L236I/A265N); assay type: binding
T7 construct: N-terminal polyhistidine tag, expressed in E. coli
Experimental: as §1, §2

[8] = target: T8, P450pra + T95W (Amycolatopsis orientalis, UniProt W5VH56, I95W/Q127R/A180V/L236I/A265N); assay type: binding
T8 construct: N-terminal polyhistidine tag, expressed in E. coli
Experimental: as §1, §2

[9] = target: T9, P450pra +V180I (Amycolatopsis orientalis, UniProt W5VH56, I95T/Q127R/A180I/L236I/A265N); assay type: binding
T9 construct: N-terminal polyhistidine tag, expressed in E. coli
Experimental: as §1, §2

[10] = target: T10, P450pra (Amycolatopsis orientalis, UniProt W5VH56, I95T/Q127R/A180V/L236I/A265N); assay type: binding
T10 construct: N-terminal polyhistidine tag, expressed in E. coli; directed evolution variant
Experimental: as §1, §2

[11] = test system: CYP3A5; set-up: method as in PMID 19530969; settings: cited from earlier work
[12] = test system: human CYP3A4; set-up: method as in PMID 19530969; settings: cited from earlier work

T3 sequence (W5VH56 entry or part of it I95F/Q127R/A180V/L236I/A265N): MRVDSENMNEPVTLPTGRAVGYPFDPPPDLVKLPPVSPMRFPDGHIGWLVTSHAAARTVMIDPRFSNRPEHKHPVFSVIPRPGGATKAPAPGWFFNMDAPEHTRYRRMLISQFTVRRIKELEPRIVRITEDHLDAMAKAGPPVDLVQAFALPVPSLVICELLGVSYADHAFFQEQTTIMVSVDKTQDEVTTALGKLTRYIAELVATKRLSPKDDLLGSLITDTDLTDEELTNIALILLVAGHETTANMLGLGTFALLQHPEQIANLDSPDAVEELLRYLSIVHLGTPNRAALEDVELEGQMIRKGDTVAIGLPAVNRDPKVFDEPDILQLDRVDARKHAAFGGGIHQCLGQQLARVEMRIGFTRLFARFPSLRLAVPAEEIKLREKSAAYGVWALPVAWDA
T7 sequence (W5VH56 entry or part of it I95T/Q127R/A180M/L236I/A265N): as the sequence (W5VH56 entry or part of it I95F/Q127R/A180V/L236I/A265N) above, with F95T, V180M counted along it
T9 sequence (W5VH56 entry or part of it I95T/Q127R/A180I/L236I/A265N): as the sequence (W5VH56 entry or part of it I95F/Q127R/A180V/L236I/A265N) above, with F95T, V180I counted along it
T10 sequence (W5VH56 entry or part of it I95T/Q127R/A180V/L236I/A265N): as the sequence (W5VH56 entry or part of it I95F/Q127R/A180V/L236I/A265N) above, with F95T counted along it
T6 sequence (W5VH56 entry or part of it P80G/I95T/Q127R/A180V/L236I/A265N): as the sequence (W5VH56 entry or part of it I95F/Q127R/A180V/L236I/A265N) above, with P80G, F95T counted along it
T5 sequence (W5VH56 entry or part of it I95F/Q127R/A180M/L236I/A265N): as the sequence (W5VH56 entry or part of it I95F/Q127R/A180V/L236I/A265N) above, with V180M counted along it
T8 sequence (W5VH56 entry or part of it I95W/Q127R/A180V/L236I/A265N): as the sequence (W5VH56 entry or part of it I95F/Q127R/A180V/L236I/A265N) above, with F95W counted along it
T2 sequence (W5VH56 entry or part of it F76N/I95T/Q127R/A180V/L236I/A265N): as the sequence (W5VH56 entry or part of it I95F/Q127R/A180V/L236I/A265N) above, with F76N, F95T counted along it
T4 sequence (W5VH56 entry or part of it I95T/Q127R/A180V/L236I/A265N/T286I): as the sequence (W5VH56 entry or part of it I95F/Q127R/A180V/L236I/A265N) above, with F95T, T286I counted along it

| Compound | Kd [1] [µM] | Kd [2] [µM] | Kd [3] [nM] | Kd [4] [µM] | Kd [5] [nM] | Kd [6] [µM] | Kd [7] [nM] | Kd [8] [µM] | Kd [9] [nM] | Kd [10] [nM] | metabolism by human CYP3A5 [11] | metabolism by human CYP3A4 [12] |
| --- | --- | --- | --- | --- | --- | --- | --- | --- | --- | --- | --- | --- |
| CC[C@H](C)C(=O)O[C@H]1CCC=C2C=C[C@H](C)[C@H](CC[C@@H]3C[C@@H](O)CC(=O)O3)[C@H]21 [compactin, compactin (mevastatin)] | 30.3 ± 5.2 | 4.81 ± 0.25 | 250 ± 10 | 4.93 ± 0.25 | 130 ± 30 | 5.84 ± 0.34 | 1340 ± 60 | 3.29 ± 0.03 | 1640 ± 130 | 770 ± 70 | – | – |
| CC[C@H](C)C(=O)O[C@H]1C[C@H](O)C=C2C=C[C@H](C)[C@H](CC[C@@H](O)C[C@@H](O)CC(=O)O)[C@H]21 [pravastatin] | – | – | – | – | – | – | – | – | – | – | not significantly metabolized | not significantly metabolized |
